The test deals with T1, pDSIP (Oryctolagus cuniculus, UniProt P01158).
T1 construct: purchased SynPep Corporation
Briefly: Phosphopeptide detection on HydroGel microarray. As to conditions: monophosphorylated peptide, binding solution with gallium chloride. Here is the method:
The peptide was loaded in a two-fold dilution series from […] on the microarray.
Two peptides, Kemptide and pDSIP, were arrayed on to HydroGel coated slides (Perkin Elmer) from a source plate (384-well) with a concentration of 0.03125 to 2 mg/mL peptide in water. The amino acid sequence of Kemptide is LRRASLG (SEQ ID NO. 1, MW 771.9) the amino acid sequence of pDSIP is […] (SEQ ID NO. 2, MW 929.5), wherein the serine residue is substituted with PO2H. Arrays were spotted using a manual glass slide arrayer (V & P Scientific, San Diego, Calif.) fixed with 4 rows of 8 pins (32 total), ˜500 micron diameter spot size, […] horizontal pitch and 750 micron vertical pitch (pitch=center to center spacing of spots). The hand arrayer collected 6 nL of peptide from the source plate and transferred ˜6 nL to the array surface by direct contact. The resultant peptide concentration was 0.18 to 12 ng/spot. Peptides were arrayed in replicates of 6, resulting in an array of 84 spots. For specific detection of pDSIP, the phosphopeptide, slides were incubated for 1 hour on a rotator in 1 μM dye of compound 2 in buffer containing 0.5 M NaCl, 20% 1,2-propanediol, 1 μM GaCl3, and 0.05 M NaOAc, pH 4.0. Slides were then washed for 1 hour on a rotator in 0.05 M NaOAc, pH 4.0, containing 10% methanol followed by a 15-minute water wash. […]

Turning to Rhod-5F [Compound 2], the “amount detectable on HydroGel microarray” value was found to be 300 fg.

The values above are taken from US7445894B2, “Compositions and methods for detection and isolation of phosphorylated molecules” (priority 2002, dated 2008).
